In patent publication US8927009B2 (AbbVie Inc., priority 2009, dated 2015):
Counter-ions that a name gives are not always drawn.

Assays:
Assay type in all cases: physicochemical
[1] = Drug solubility in ternary excipient systems; parameters: key: ✓: vehicle miscible, or drug fully dissolved in vehicle; x: vehicle immiscible or miscible but turbid, or residual solids present (due to undissolved drug or precipitation); settings: 10% salt, 20% free base
Source text: (§1) Solvents evaluated included Labrafil M 1944 CS™, Imwitor 742™, oleic acid, Capmul PG-8™, Capmul PG-12™, Lauroglycol 90™ (propylene glycol monolaurate, available from Gattefossé) and Phosal 53 MCT™. Surfactants evaluated included Tween 80™, Cremophor RH40™, Gelucire 44/14™ (polyoxyethylene glyceryl laurate, available from Gattefossé) and Labrasol™.

[2] = Solubility in lipid solvents and solvent mixtures in ambient conditions; settings: listed as bis-HCl salt
Protocol: Solubility of ABT-263 parent (free base, crystalline Form I) and ABT-263 bis-HCl salt was tested in a variety of lipid solvents and solvent mixtures in ambient conditions. Trademarked solvents in this study, unless identified hereinabove, are as follows (substantially equivalent products from other manufacturers can be substituted if available): • Miglyol 810™ of Sasol: caprylic/capric triglycerides; • Capmul MCM™ of Abitec: glyceryl caprylate/caprate; • Captex 300™ of Abitec: caprylic/capric triglycerides; • Labrafil M 2125 CS™ of Gattefossé: polyoxyethylene glyceryl linoleate; • Tween 20™ of Uniqema: polysorbate 20; • Labrasol™ of Gattefossé: polyoxyethylene glyceryl caprylate/caprate; • Cremophor RH40™: polyoxyethyene (40) hydrogenated castor oil. “PE-91” is Phosal 53 MCT™+ethanol, 9:1 by volume. “LOT-343” is Labrafil M 1944 CS™+oleic acid+Tween 80™, 30:40:30 by weight.
In some cases, indicated in Table 4 by an asterisk (*), solubility was initially high but precipitation occurred upon standing.

[3] = Drug solubility in ternary excipient systems; parameters: key: ✓: vehicle miscible, or drug fully dissolved in vehicle; settings: 10% salt, 20% free base
Source text: as §1

ABT-263 solubility ([1]; Capmul PG-8/Labrafil M 1944 CS/Cremophor RH40 (C8LC) 40:40:20 % by weight): x
ABT-263 solubility ([1]; Capmul PG-8/Labrafil M 1944 CS/Cremophor RH40 (C8LC) 50:30:20 % by weight): x
ABT-263 solubility ([1]; Capmul PG-8/Labrafil M 1944 CS/Cremophor RH40 (C8LC) 50:40:10 % by weight): x
ABT-263 solubility ([1]; Capmul PG-8/Labrafil M 1944 CS/Cremophor RH40 (C8LC) 60:30:10 % by weight): x
ABT-263 solubility ([1]; Capmul PG-8/Labrafil M 1944 CS/Labrasol (C8LL) 50:30:20 % by weight): x
ABT-263 solubility ([1]; Capmul PG-8/Labrafil M 1944 CS/Labrasol (C8LL) 50:40:10 % by weight): x
ABT-263 solubility ([1]; Capmul PG-8/Labrafil M 1944 CS/Labrasol (C8LL) 60:30:10 % by weight): x
ABT-263 solubility ([1]; Capmul PG-8/Labrafil M 1944 CS/Tween 80 (C8LT) 30:40:30 % by weight): x
ABT-263 solubility ([1]; Capmul PG-8/Labrafil M 1944 CS/Tween 80 (C8LT) 35:40:25 % by weight): x
ABT-263 solubility ([1]; Capmul PG-8/Labrafil M 1944 CS/Tween 80 (C8LT) 40:30:30 % by weight): x
ABT-263 solubility ([1]; Capmul PG-8/Labrafil M 1944 CS/Tween 80 (C8LT) 45:30:25 % by weight): x
Solubility ([2]; in Capmul PG-8, ambient conditions): <43 mg/g
Solubility ([2]; in Capmul PG-12, ambient conditions): <39 mg/g
Solubility ([2]; in Captex 300, ambient conditions): <52 mg/g
Solubility ([2]; in Labrafil M 1944 CS, ambient conditions): <45 mg/g
Solubility ([2]; in Labrafil M 2125 CS, ambient conditions): <44 mg/g
Solubility ([2]; in PE-91 (Phosal 53 MCT + ethanol 9:1 by volume), ambient conditions): 89 mg/g
Solubility ([2]; in poloxamer 124, ambient conditions): <41 mg/g
Solubility ([2]; in sesame oil, ambient conditions): <80 mg/g
ABT-263 solubility ([3]; Capmul PG-8/Labrafil M 1944 CS/Labrasol (C8LL) 40:40:20 % by weight): ✓
ABT-263 solubility ([3]; Capmul PG-12/Labrafil M 1944 CS/Tween 80 (C12LT) 30:40:30 % by weight): ✓
ABT-263 solubility ([3]; Capmul PG-12/Labrafil M 1944 CS/Tween 80 (C12LT) 35:40:25 % by weight): ✓
ABT-263 solubility ([3]; Capmul PG-12/Labrafil M 1944 CS/Tween 80 (C12LT) 40:30:30 % by weight): ✓
ABT-263 solubility ([3]; Capmul PG-12/Labrafil M 1944 CS/Tween 80 (C12LT) 45:30:25 % by weight): ✓
ABT-263 solubility ([3]; Imwitor 742/Labrafil M 1944 CS/Cremophor RH40 (ILC) 40:40:20 % by weight, listed as salt): ✓
ABT-263 solubility ([3]; Imwitor 742/Labrafil M 1944 CS/Cremophor RH40 (ILC) 50:30:20 % by weight, listed as salt): ✓
ABT-263 solubility ([3]; Imwitor 742/Labrafil M 1944 CS/Cremophor RH40 (ILC) 50:40:10 % by weight, listed as salt): ✓
ABT-263 solubility ([3]; Imwitor 742/Labrafil M 1944 CS/Cremophor RH40 (ILC) 60:30:10 % by weight, listed as salt): ✓
ABT-263 solubility ([3]; Imwitor 742/Labrafil M 1944 CS/Labrasol (ILL) 40:40:20 % by weight, listed as salt): ✓
ABT-263 solubility ([3]; Imwitor 742/Labrafil M 1944 CS/Labrasol (ILL) 50:30:20 % by weight, listed as salt): ✓
ABT-263 solubility ([3]; Imwitor 742/Labrafil M 1944 CS/Labrasol (ILL) 50:40:10 % by weight, listed as salt): ✓
ABT-263 solubility ([3]; Imwitor 742/Labrafil M 1944 CS/Labrasol (ILL) 60:30:10 % by weight, listed as salt): ✓
ABT-263 solubility ([3]; Labrafil M 1944 CS/Imwitor 742/Tween 80 (LIT) 30:40:30 % by weight, listed as salt): ✓
ABT-263 solubility ([3]; Labrafil M 1944 CS/Imwitor 742/Tween 80 (LIT) 30:45:25 % by weight, listed as salt): ✓
ABT-263 solubility ([3]; Labrafil M 1944 CS/Imwitor 742/Tween 80 (LIT) 40:30:30 % by weight, listed as salt): ✓
ABT-263 solubility ([3]; Labrafil M 1944 CS/Imwitor 742/Tween 80 (LIT) 40:35:25 % by weight, listed as salt): ✓
ABT-263 solubility ([3]; Labrafil M 1944 CS/oleic acid/Cremophor RH40 (LOC) 30:60:10 % by weight): ✓
ABT-263 solubility ([3]; Labrafil M 1944 CS/oleic acid/Cremophor RH40 (LOC) 40:50:10 % by weight): ✓
ABT-263 solubility ([3]; Labrafil M 1944 CS/oleic acid/Tween 80 (LOT) 30:40:30 % by weight): ✓
ABT-263 solubility ([3]; Labrafil M 1944 CS/oleic acid/Tween 80 (LOT) 30:45:25 % by weight): ✓
ABT-263 solubility ([3]; Labrafil M 1944 CS/oleic acid/Tween 80 (LOT) 40:30:30 % by weight): ✓
ABT-263 solubility ([3]; Labrafil M 1944 CS/oleic acid/Tween 80 (LOT) 40:35:25 % by weight): ✓
ABT-263 solubility ([3]; Lauroglycol 90/Labrafil M 1944 CS/Cremophor RH40 (LLC) 45:30:25 % by weight): ✓
ABT-263 solubility ([3]; Lauroglycol 90/Labrafil M 1944 CS/Labrasol (LLL) 40:40:20 % by weight): ✓
ABT-263 solubility ([3]; Lauroglycol 90/Labrafil M 1944 CS/Labrasol (LLL) 50:30:20 % by weight): ✓
ABT-263 solubility ([3]; Lauroglycol 90/Labrafil M 1944 CS/Labrasol (LLL) 50:40:10 % by weight, listed as salt): ✓
ABT-263 solubility ([3]; Lauroglycol 90/Labrafil M 1944 CS/Labrasol (LLL) 60:30:10 % by weight, listed as salt): ✓
ABT-263 solubility ([3]; oleic acid/Labrafil M 1944 CS/Labrasol (OLL) 40:40:20 % by weight): ✓
ABT-263 solubility ([3]; oleic acid/Labrafil M 1944 CS/Labrasol (OLL) 50:30:20 % by weight): ✓
ABT-263 solubility ([3]; oleic acid/Labrafil M 1944 CS/Labrasol (OLL) 50:40:10 % by weight): ✓
ABT-263 solubility ([3]; oleic acid/Labrafil M 1944 CS/Labrasol (OLL) 60:30:10 % by weight): ✓
Structure (SMILES): CC1(C)CCC(c2ccc(Cl)cc2)=C(CN2CCN(c3ccc(C(=O)NS(=O)(=O)c4ccc(N[C@H](CCN5CCOCC5)CSc5ccccc5)c(S(=O)(=O)C(F)(F)F)c4)cc3)CC2)C1 [ABT-263 bis-HCl]
